From patent US20180105492A1, “COMPOUNDS DERIVED FROM 3-ALKYLAMINE-1H-INDOLYL ACRYLATE AND THEIR USE IN THE TREATMENT OF NEURODEGENERATIVE DISEASES” (FUNDACION PARA LA INVESTIGACION BIOMEDICA DEL HOSPITAL …, priority 2014, published 2018)

What was measured:
HepG2 cells = assay: Hepatotoxicity in HepG2 cell line, reduction of cell viability (MTT); type: cell-based
Experimental: (§1) In order to assess cellular viability, we measured the metabolic reduction of 3-(4,5-Dimethylthiazol-2-yl)-2,5 diphenyltetrazolium bromide (MTT). MTT is an indirect assay to measure cellular viability. It is a colorimetric method based on the reduction of 3-(4,5-Dimethylthiazol-2-yl)-2,5 diphenyltetrazolium. This process is performed by the mitochondrial enzyme succinate-dehydrogenase present in metabolic active cells. Thus, the water-soluble yellow MTT (tetrazolium salt) is transformed into a insoluble purple compound (formazan). Quantity of living cells is directly proportional to the quantity of formazan (Mosmann, 1983, J Immunol Methods, 65: 55-63). […] Therefore, with this assay we can measure cellular surviving and proliferation and also, we can determine the cytotoxicity of potential neuroprotective compounds. In order to assess cellular viability in SH-SY5Y cell line, we added 30 μl/well of MTT (5 mg/mL) and after 2 h, medium was carefully removed to avoid losing the formazan and was diluted in 300 μL of DMSO. Afterwards, samples were transferred to a 96 well-plate and the absorbance was measured at 570 nm using a absorbance/fluorescence reader FluoStar optima®. Every MTT assay was performed in triplicates. Absorbance values obtained with the toxic alone were subtracted to the absorbance values obtained in basal conditions (without treatment). That result was considered as the 100% of cell death and the values obtained with the compounds in the presence of the toxic stimulus were normalized as percentages of that value. For determining the surviving percentage, those percentages of cell death were subtracted to 100.
In general, compounds capable of inducing the transcription factor Nrf2 may have a hepatotoxic effect, due to the electrophilic character that generally characterizes them. The derivatives objects of this invention were designed to avoid this toxicity and to improve its safety profile. The liver plays an essential role in the metabolism of endogenous and exogenous compounds. Hepatocytes capture these compounds and after metabolizing them, they are eliminated by different mechanisms. Metabolized compounds usually have less pharmacological activity and less toxicity than the corresponding active principles. However, in certain cases, the active principles or their metabolites may be toxic to the hepatocytes. Hepatic toxicity is one of the leading causes of drug withdrawal from preclinical studies. […] In addition, these cells have been defined by the European Medicines Agency (EMA) as a model of hepatoxicity by measuring the induction of apoptosis and/or cell survival. Therefore, the safety profile of the compounds object of the present invention was evaluated in the HepG2 hepatic cancer cell line. HepG2 cells were cultured in T75 flask using EMEM as culture medium supplemented with non-essential amino acids, 10% fetal bovine serum, 50 units/mL penicillin and 50 μg/mL streptomycin (reagents from GIBCO, Madrid, Spain). Cultures were maintained in an incubator with an O2/CO2 gas mixture (95/5%) at 37° C. with a humid atmosphere and two passes per week were made when they reached 90% of confluence. All experiments were performed on cells that were between passages 5 and 15. For the experiments, the cells were plated in 96-well plates at a density of 4×10 ^4 cells/well in 200 μl of culture medium. After 24 h in culture, the medium was removed and replaced with 100 μL of the corresponding solution of the compounds of the invention in culture medium at the selected concentrations (1, 10, 30 and 100 μM). The compounds were studied in triplicate, including in each experiment 3 wells without treatment, which was considered as 100% of viability (baseline conditions). After 24 h of incubation with the treatments, cell viability was assessed by the MTT reduction method. […]

SH-SY5Y cells = assay: Neuroprotection against rotenone/oligomycin A, pre- and co-incubation model, MTT; type: cell-based; conditions: Homo sapiens, compound 1 μM pre-incubation 24 h and co-incubation 24 h with Rot/Olig (30/10 μM); for inhibition at 1 µM: read-out: % Protection; for viability at 1 µM: read-out: % Survival
Experimental: SH-SY5Y cells [ECACC 94030304], in 5 to 16 passage after defreezing were maintained in Eagle media modified by Dulbecco (DMEM) containing 15 non-essential amino acids and supplemented with 10% fetal bovine serum, 1 mM glutamine, 50 units/mL penicillin/streptomycin (obtained from GIBCO, Madrid, Spain). Cells were seeded in flasks containing supplemented media and were maintained in an incubator at 37° C. and 5% CO2. 1:4 passes were performed twice per week. For the experiments, cells were seeded in 24 well-plates at a density of 2×10^5 cells/well, or in 96 well-plates at a density of 8×10^4 cells/well. For cytotoxicity experiments, cells were treated with the compounds before confluence with DMEM media supplemented with fetal bovine serum 1%.
as §1
Neuroprotection elicited by the compounds of the invention 1-16: The activation of Nrf2-ARE pathway by different compounds exerts neuroprotective effects against toxic models based on oxidative stress via the expression of cytoprotective genes. […] We evaluated the neuroprotective potential of the compounds using the human neuroblastoma cell line using the following cytotoxicity models: 1) oxidative stress induced by rotenone+oligomycin, both blockers of the electron transport chain as previously described (Halliwell, 1992, J Neurochem, 59: 1609-23, Newhouse y col., 2004, Toxicol Sci, 79: 137-46), and 2) cytotoxicity induced by the electrophilic compound Menadione. This compound produces oxidative stress after being metabolized by microsomal enzymes in the cell which produces hydroxyl radical and oxygen reactive species. As a consequence, there is a depolarization of mitochondrial membrane generating a release of apoptotic factors such as cytochrome c, and activating the caspase cascade (Loor y col., 2010, Free Radic Biol Med, 49: 1925-36, Chuang y col., 2002, Cancer Res, 62: 6246-54). Caspase 3 activation can produce the lysis of proteins and induce DNA fragmentation, leading to cell death (Gerasimenko y col., 2002, J Cell Sci, 115: 485-97).
In this model, a 24 h pre-incubation period was performed in presence of the compounds synthesized at a concentration of 1 μM. Thereafter, a 24 h co-incubation period was added, in presence of the compounds with rotenone/oligomycin A (30 μM/10 μM) mixture. After 24 h, cell viability was assessed by the MTT reduction method. […]

[1] = 24 h incubation, MTT, concentration reducing viability to 50% of basal

Row | Compound | HepG2 LD50 (HepG2 cells; [1]) | inhibition at 1 µM (SH-SY5Y cells) | viability at 1 µM (SH-SY5Y cells) | HepG2 LD50 (HepG2 cells; human, 24 h)
1 | CC(=O)NCCc1c[nH]c2ccc(OC(=O)/C=C/c3ccc(F)cc3)cc12 [Compound 9, 3-(2-acetamidoethyl)-1H-indol-5-yl (E)-3-(4-fluorophenyl)acrylate] | >100 µM | 40.5% | 69.6 ± 2.63% | –
2 | CC(=O)NCCc1c[nH]c2ccc(OC(=O)/C=C/c3ccc([N+](=O)[O-])cc3)cc12 [Compound 16, 3-(2-acetamidoethyl)-1H-indol-5-yl (E)-3-(4-nitrophenyl)acrylate] | >100 µM | 29.5% | 76.5 ± 2.18% | –
3 | CC(=O)NCCc1c[nH]c2ccc(OC(=O)/C=C/c3ccccc3)cc12 [Compound 2, 3-(2-acetamidoethyl)-1H-indol-5-yl cinnamate] | >100 µM | 48% | 73.7 ± 4.65% | –
4 | CC(=O)NCCc1c[nH]c2ccc(OC(=O)/C=C/c3ccc(C(F)(F)F)cc3)cc12 [Compound 15, 3-(2-acetamidoethyl)-1H-indol-5-yl (E)-3-(4-(trifluoromethyl)phenyl)acrylate] | >100 µM | 47.6% | 73 ± 2.99% | –
5 | CC(=O)NCCc1c[nH]c2ccc(OC(=O)/C=C/c3ccc(O)cc3)cc12 [Compound 7, 3-(2-acetamidoethyl)-1H-indol-5-yl (E)-3-(4-hydroxyphenyl)acrylate] | >100 µM | 39.8% | 79.7 ± 2.37% | –
6 | CC(=O)NCCc1c[nH]c2ccc(OC(=O)/C=C/c3ccccc3C(F)(F)F)cc12 [Compound 13, 3-(2-acetamidoethyl)-1H-indol-5-yl (E)-3-(2-(trifluoromethyl)phenyl)acrylate] | >100 µM | 50.2% | 73.8 ± 4.55% | –
7 | CC(=O)NCCc1c[nH]c2ccc(OC(=O)/C=C/c3ccc(Cl)cc3)cc12 [Compound 11, 3-(2-acetamidoethyl)-1H-indol-5-yl (E)-3-(4-chlorophenyl)acrylate] | >100 µM | 28.4% | 70.2 ± 3.7% | –
8 | COc1ccc(/C=C/C(=O)Oc2ccc3[nH]cc(CCNC(C)=O)c3c2)cc1 [Compound 6, 3-(2-acetamidoethyl)-1H-indol-5-yl (E)-3-(4-methoxyphenyl)acrylate] | >100 µM | 44.1% | 71.6 ± 3.94% | –
9 | COc1ccc2[nH]cc(CCNC(C)=O)c2c1 [Melatonin, reference compound] | – | 31.1% | 68.3 ± 4.27% | >100 µM
10 | CC(=O)NCCc1c[nH]c2ccc(OC(=O)/C=C/c3ccc(Cl)c(Cl)c3)cc12 [Compound 12, 3-(2-acetamidoethyl)-1H-indol-5-yl (E)-3-(3,4-dichlorophenyl)acrylate] | >100 µM | 27.8% | 69.9 ± 3.47% | –
11 | CC(=O)NCCc1c[nH]c2ccc(OC(=O)/C=C/c3ccc(Br)cc3)cc12 [Compound 10, 3-(2-acetamidoethyl)-1H-indol-5-yl (E)-3-(4-bromophenyl)acrylate] | >100 µM | 40.8% | 70.4 ± 2.21% | –
12 | COc1cccc(/C=C/C(=O)Oc2ccc3[nH]cc(CCNC(C)=O)c3c2)c1 [Compound 5, 3-(2-acetamidoethyl)-1H-indol-5-yl (E)-3-(3-methoxyphenyl)acrylate] | >100 µM | 57.6% | 78.7 ± 4.37% | –
13 | COc1cc(/C=C/C(=O)Oc2ccc3[nH]cc(CCNC(C)=O)c3c2)ccc1O [Compound 8, 3-(2-acetamidoethyl)-1H-indol-5-yl (E)-3-(4-hydroxy-3-methoxyphenyl)acrylate] | >100 µM | 41.7% | 81.1 ± 1.71% | –
14 | CC(=O)NCCc1c[nH]c2ccc(OC(=O)/C=C/c3ccc(C)cc3)cc12 [Compound 3, 3-(2-acetamidoethyl)-1H-indol-5-yl (E)-3-(4-methylphenyl)acrylate] | >100 µM | 55.1% | 76.4 ± 3.89% | –
15 | C/C=C/C(=O)Oc1ccc2[nH]cc(CCNC(C)=O)c2c1 [Compound 1, 3-(2-acetamidoethyl)-1H-indol-5-yl (E)-2-butenoate] | >100 µM | 28.8% | 77 ± 1.3% | –
16 | CC(=O)NCCc1c[nH]c2ccc(OC(=O)/C=C/c3cccc(C(F)(F)F)c3)cc12 [Compound 14, 3-(2-acetamidoethyl)-1H-indol-5-yl (E)-3-(3-(trifluoromethyl)phenyl)acrylate] | >100 µM | 45.9% | 72.6 ± 3.75% | –
17 | COc1ccccc1/C=C/C(=O)Oc1ccc2[nH]cc(CCNC(C)=O)c2c1 [Compound 4, 3-(2-acetamidoethyl)-1H-indol-5-yl (E)-3-(2-methoxyphenyl)acrylate] | >100 µM | 28.1% | 69.9 ± 4.17% | –
